The numbers were not newly measured in patent publication US20080280861A1, “Method of Female Contraception and a Kit For Use Therein” (PANTARHEI BIOSCIENCE B.V., priority 2004, published 2008), which cites them from elsewhere.

Structures are written as SMILES.

The conditions of this series: relative to levonorgestrel dosage; known in the art.
`CC(=O)[C@H]1CC[C@H]2[C@@H]3C=CC4=CC(=O)CC[C@@]4(C)[C@@H]3CC[C@]12C` [Dydrogesterone]: the Conversion factor is listed as 133. Regarding `C#C[C@]1(OC(C)=O)CC[C@H]2[C@@H]3CCC4=CC(=NO)CC[C@@H]4[C@H]3CC[C@@]21CC` (mixture of isomers) [Norgestimate], the Conversion factor is 1.7. Consider `C[C@]12CCC(=O)C=C1[C@@H]1C[C@@H]1[C@H]1[C@@H]3[C@@H]4C[C@@H]4[C@@]4(CCC(=O)O4)[C@@]3(C)CC[C@@H]12` [Drospirenone], for which the Conversion factor is given as 20. Take `C#C[C@]1(O)CC[C@H]2[C@@H]3CCC4=CC(=O)CC[C@@H]4[C@H]3CC[C@@]21C` [Norethisterone]: the Conversion factor is 7.
